## Nc1ccc(S(=O)(=O)Nc2ncccn2)cc1
In ethylene glycol, 278.15 K
  solubility (mole fraction): 0.00034
In ethylene glycol, 283.15 K
  solubility (mole fraction): 0.000379
In ethylene glycol, 288.15 K
  solubility (mole fraction): 0.000413
In ethylene glycol, 293.15 K
  solubility (mole fraction): 0.00047
In ethylene glycol, 298.15 K
  solubility (mole fraction): 0.000532
In ethylene glycol, 303.15 K
  solubility (mole fraction): 0.000575
In ethylene glycol, 308.15 K
  solubility (mole fraction): 0.000637
In ethylene glycol, 313.15 K
  solubility (mole fraction): 0.000694
In ethylene glycol, 318.15 K
  solubility (mole fraction): 0.000752
In water, 278.15 K
  solubility (mole fraction): 1.61e-06
In water, 283.15 K
  solubility (mole fraction): 2.01e-06
In water, 288.15 K
  solubility (mole fraction): 2.86e-06
In water, 293.15 K
  solubility (mole fraction): 3.8e-06
In water, 298.15 K
  solubility (mole fraction): 4.81e-06
In water, 303.15 K
  solubility (mole fraction): 6.49e-06
In water, 308.15 K
  solubility (mole fraction): 8.69e-06
In water, 313.15 K
  solubility (mole fraction): 1.14e-05
In water, 318.15 K
  solubility (mole fraction): 1.22e-05

Source: BigSolDB 2.1
